Measurements published in patent US6355799B1, “Substituted benzene compounds, process for their preparation, and herbicidal and defoliant compositions containing them” (ISK Americas Incorporated, priority 1997, dated 2002).

Tests used:
Format in all cases: in vivo
[1] = tested on: redroot pigweed (Amaranthus retroflexus, AMARE); assay: Pre-emerge test, greenhouse herbicide activity screening; settings: for Pre-emerge Herbicidal Activity, phytotoxicity rating (0-100), AMARE: rated 14 days after application, 0 = no damage, 100 = complete death; for phytotoxicity rating AMARE: pre-emerge, 14 days after application, rating scale 0-100
Method in brief: (§1)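 Plants grown in 10 cm pots of sandy loam mix received acetone-dissolved compounds through a moving flat-fan nozzle. Doses ranged from 15 to 1000 g ai/ha. Pre-emerge pots were seeded one day earlier, post-emerge pots 8–21 days earlier. Fourteen days on, each pot was graded 0–100 for damage.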

[2] = tested on: sicklepod (Cassia obtusifolia, CASOB); assay: as above; settings: for Pre-emerge Herbicidal Activity, phytotoxicity rating (0-100), CASOB: rated 14 days after application, 0 = no damage, 100 = complete death; for phytotoxicity rating CASOB: pre-emerge, 14 days after application, rating scale 0-100
Method in brief: as §1

[3] = tested on: green foxtail (Setaria viridis, SETVI); assay: as above; settings: for Pre-emerge Herbicidal Activity, phytotoxicity rating (0-100), SETVI: rated 14 days after application, 0 = no damage, 100 = complete death; for phytotoxicity rating SETVI: pre-emerge, 14 days after application, rating scale 0-100
Method in brief: as §1

[4] = tested on: johnsongrass (Sorghum halepense, SORHA); assay: as above; settings: for Pre-emerge Herbicidal Activity, phytotoxicity rating (0-100), SORHA: rated 14 days after application, 0 = no damage, 100 = complete death; for phytotoxicity rating SORHA: pre-emerge, 14 days after application, rating scale 0-100
Method in brief: as §1

[5] = tested on: lambsquarters (Chenopodium album, CHEAL); assay: as above; settings: for Pre-emerge Herbicidal Activity, phytotoxicity rating (0-100), CHEAL: rated 14 days after application, 0 = no damage, 100 = complete death; for phytotoxicity rating CHEAL: pre-emerge, 14 days after application, rating scale 0-100
Method in brief: as §1

[6] = tested on: large crabgrass (Digitaria sanguinalis, DIGSA); assay: as above; settings: for Pre-emerge Herbicidal Activity, phytotoxicity rating (0-100), DIGSA: rated 14 days after application, 0 = no damage, 100 = complete death; for phytotoxicity rating DIGSA: pre-emerge, 14 days after application, rating scale 0-100
Method in brief: as §1

[7] = tested on: ivyleaf morningglory (Ipomoea hederacea, IPOHE); assay: as above; settings: for Pre-emerge Herbicidal Activity, phytotoxicity rating (0-100), IPOHE: rated 14 days after application, 0 = no damage, 100 = complete death; for phytotoxicity rating IPOHE: pre-emerge, 14 days after application, rating scale 0-100
Method in brief: as §1

[8] = tested on: barnyardgrass (Echinochloa crus-galli, ECHCG); assay: as above; settings: for Pre-emerge Herbicidal Activity, phytotoxicity rating (0-100), ECHCG: rated 14 days after application, 0 = no damage, 100 = complete death; for phytotoxicity rating ECHCG: pre-emerge, 14 days after application, rating scale 0-100
Method in brief: as §1

[9] = tested on: velvetleaf (Abutilon theophrasti, ABUTH); assay: as above; settings: for Pre-emerge Herbicidal Activity, phytotoxicity rating (0-100), ABUTH: rated 14 days after application, 0 = no damage, 100 = complete death; for phytotoxicity rating ABUTH: pre-emerge, 14 days after application, rating scale 0-100
Method in brief: as §1

[10] = tested on: upland rice (Oryza sp., var. Tebonnet, RICE); assay: Post-emerge test, crop safety; settings: post-emerge, 14 days after application, rating scale 0-100
Method in brief: (§2)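 Each test used a mechanized track sprayer delivering 187 l/ha of acetone solution at 15–1000 g ai/ha. Post-emerge foliage at 2–3 leaves was treated with added 0.25% v/v non-ionic surfactant and bottom-watered only. Injury was assessed on day 14, where 100 means total kill.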

[11] = tested on: field corn (Zea mays L., var. Dekalb 535, CORN); assay: Post-emerge test, crop safety; settings: post-emerge, 14 days after application, rating scale 0-100
Method in brief: as §2

[12] = tested on: sicklepod (Cassia obtusifolia, CASOB); assay: Post-emerge test, greenhouse herbicide activity screening; settings: post-emerge, 14 days after application, rating scale 0-100
Method in brief: (§3)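 Compounds in acetone were track-sprayed at 187 l/ha, 15–1000 g ai/ha, onto sandy loam pots. Pre-emerge seeds were sown one day before spraying, with surface watering afterwards. Post-emerge plants were at the 2–3 leaf stage and sprayed with 0.25% v/v non-ionic surfactant. Injury was rated 0–100 at 14 days.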

[13] = tested on: green foxtail (Setaria viridis, SETVI); assay: as above; settings: post-emerge, 14 days after application, rating scale 0-100
Method in brief: as §3

[14] = tested on: johnsongrass (Sorghum halepense, SORHA); assay: as above; settings: post-emerge, 14 days after application, rating scale 0-100
Method in brief: as §3

[15] = tested on: lambsquarters (Chenopodium album, CHEAL); assay: as above; settings: post-emerge, 14 days after application, rating scale 0-100
Method in brief: as §3

[16] = tested on: large crabgrass (Digitaria sanguinalis, DIGSA); assay: as above; settings: post-emerge, 14 days after application, rating scale 0-100
Method in brief: as §3

[17] = tested on: ivyleaf morningglory (Ipomoea hederacea, IPOHE); assay: as above; settings: post-emerge, 14 days after application, rating scale 0-100
Method in brief: as §3

[18] = tested on: redroot pigweed (Amaranthus retroflexus, AMARE); assay: as above; settings: post-emerge, 14 days after application
Method in brief: as §3

[19] = tested on: barnyardgrass (Echinochloa crus-galli, ECHCG); assay: as above; settings: post-emerge, 14 days after application, rating scale 0-100
Method in brief: as §3

[20] = tested on: velvetleaf (Abutilon theophrasti, ABUTH); assay: as above; settings: post-emerge, 14 days after application, rating scale 0-100
Method in brief: as §3

[21] = tested on: upland rice (Oryza sp., var. Tebonnet, RICE); assay: Pre-emerge test, crop safety; settings: for Pre-emerge phytotoxicity rating (0-100), crop damage, RICE: rated 14 days after application, 0 = no damage, 100 = complete death; for phytotoxicity rating RICE: pre-emerge, 14 days after application, rating scale 0-100
Method in brief: as §3

[22] = tested on: field corn (Zea mays L., var. Dekalb 535, CORN); assay: Pre-emerge test, crop safety; settings: for Pre-emerge phytotoxicity rating (0-100), crop damage, CORN: rated 14 days after application, 0 = no damage, 100 = complete death; for phytotoxicity rating CORN: pre-emerge, 14 days after application, rating scale 0-100
Method in brief: as §3

[23] = 250 g ai/ha, rating scale 0-100

## COc1c(Cl)cc(F)c(-n2c(=O)cc(C(F)(F)F)n(C)c2=O)c1N(C(=O)C=Cc1ccccc1Cl)C(=O)C=Cc1ccccc1Cl [2-83]
[1]; 63 g ai/ha
  Pre-emerge Herbicidal Activity, phytotoxicity rating (0-100), AMARE: 60
[1]; 250 g ai/ha
  Pre-emerge Herbicidal Activity, phytotoxicity rating (0-100), AMARE: 100
[2]; 63 g ai/ha
  Pre-emerge Herbicidal Activity, phytotoxicity rating (0-100), CASOB: 0
[2]; 250 g ai/ha
  Pre-emerge Herbicidal Activity, phytotoxicity rating (0-100), CASOB: 0
[3]; 63 g ai/ha
  Pre-emerge Herbicidal Activity, phytotoxicity rating (0-100), SETVI: 0
[3]; 250 g ai/ha
  Pre-emerge Herbicidal Activity, phytotoxicity rating (0-100), SETVI: 40
[4]; 63 g ai/ha
  Pre-emerge Herbicidal Activity, phytotoxicity rating (0-100), SORHA: 0
[4]; 250 g ai/ha
  Pre-emerge Herbicidal Activity, phytotoxicity rating (0-100), SORHA: 20
[5]; 63 g ai/ha
  Pre-emerge Herbicidal Activity, phytotoxicity rating (0-100), CHEAL: 30
[5]; 250 g ai/ha
  Pre-emerge Herbicidal Activity, phytotoxicity rating (0-100), CHEAL: 90
[6]; 63 g ai/ha
  Pre-emerge Herbicidal Activity, phytotoxicity rating (0-100), DIGSA: 0
[6]; 250 g ai/ha
  Pre-emerge Herbicidal Activity, phytotoxicity rating (0-100), DIGSA: 30
[7]; 63 g ai/ha
  Pre-emerge Herbicidal Activity, phytotoxicity rating (0-100), IPOHE: 0
[7]; 250 g ai/ha
  Pre-emerge Herbicidal Activity, phytotoxicity rating (0-100), IPOHE: 0
[8]; 63 g ai/ha
  Pre-emerge Herbicidal Activity, phytotoxicity rating (0-100), ECHCG: 0
[8]; 250 g ai/ha
  Pre-emerge Herbicidal Activity, phytotoxicity rating (0-100), ECHCG: 0
[9]; 63 g ai/ha
  Pre-emerge Herbicidal Activity, phytotoxicity rating (0-100), ABUTH: 10
[9]; 250 g ai/ha
  Pre-emerge Herbicidal Activity, phytotoxicity rating (0-100), ABUTH: 100
[10]; 63 g ai/ha
  phytotoxicity rating RICE: 100
[10]; 250 g ai/ha
  phytotoxicity rating RICE: 0
[11]; 63 g ai/ha
  phytotoxicity rating CORN: 0
[11]; 250 g ai/ha
  phytotoxicity rating CORN: 0
[12]; 63 g ai/ha
  phytotoxicity rating CASOB: 0
[12]; 250 g ai/ha
  phytotoxicity rating CASOB: 0
[13]; 63 g ai/ha
  phytotoxicity rating SETVI: 0
[13]; 250 g ai/ha
  phytotoxicity rating SETVI: 0
[14]; 63 g ai/ha
  phytotoxicity rating SORHA: 0
[14]; 250 g ai/ha
  phytotoxicity rating SORHA: 0
[15]; 63 g ai/ha
  phytotoxicity rating CHEAL: 20
[15]; 250 g ai/ha
  phytotoxicity rating CHEAL: 50
[16]; 63 g ai/ha
  phytotoxicity rating DIGSA: 0
[16]; 250 g ai/ha
  phytotoxicity rating DIGSA: 0
[17]; 63 g ai/ha
  phytotoxicity rating IPOHE: 10
[17]; 250 g ai/ha
  phytotoxicity rating IPOHE: 20
[18]; 63 g ai/ha, rating scale 0-100
  phytotoxicity rating AMARE: 40
[18]; [23]
  phytotoxicity rating AMARE: 90
[19]; 63 g ai/ha
  phytotoxicity rating ECHCG: 0
[19]; 250 g ai/ha
  phytotoxicity rating ECHCG: 0
[20]; 63 g ai/ha
  phytotoxicity rating ABUTH: 50
[20]; 250 g ai/ha
  phytotoxicity rating ABUTH: 70
[21]; 63 g ai/ha
  Pre-emerge phytotoxicity rating (0-100), crop damage, RICE: 0
[21]; 250 g ai/ha
  Pre-emerge phytotoxicity rating (0-100), crop damage, RICE: 0
[22]; 63 g ai/ha
  Pre-emerge phytotoxicity rating (0-100), crop damage, CORN: 0
[22]; 250 g ai/ha
  Pre-emerge phytotoxicity rating (0-100), crop damage, CORN: 0

## COc1c(Cl)cc(F)c(-n2c(=O)cc(C(F)(F)F)n(C)c2=O)c1NN=C(C)C [15-12]
[1]; 63 g ai/ha
  phytotoxicity rating AMARE: 100
[1]; 250 g ai/ha
  phytotoxicity rating AMARE: 100
[2]; 63 g ai/ha
  phytotoxicity rating CASOB: 100
[2]; 250 g ai/ha
  phytotoxicity rating CASOB: 100
[3]; 63 g ai/ha
  phytotoxicity rating SETVI: 100
[3]; 250 g ai/ha
  phytotoxicity rating SETVI: 100
[4]; 63 g ai/ha
  phytotoxicity rating SORHA: 100
[4]; 250 g ai/ha
  phytotoxicity rating SORHA: 100
[5]; 63 g ai/ha
  phytotoxicity rating CHEAL: 100
[5]; 250 g ai/ha
  phytotoxicity rating CHEAL: 100
[6]; 63 g ai/ha
  phytotoxicity rating DIGSA: 100
[6]; 250 g ai/ha
  phytotoxicity rating DIGSA: 100
[7]; 63 g ai/ha
  phytotoxicity rating IPOHE: 100
[7]; 250 g ai/ha
  phytotoxicity rating IPOHE: 100
[8]; 63 g ai/ha
  phytotoxicity rating ECHCG: 100
[8]; 250 g ai/ha
  phytotoxicity rating ECHCG: 100
[9]; 63 g ai/ha
  phytotoxicity rating ABUTH: 100
[9]; 250 g ai/ha
  phytotoxicity rating ABUTH: 100
[10]; 63 g ai/ha
  Post-emerge Herbicidal Activity RICE (crop damage rating): 80
[10]; 250 g ai/ha
  Post-emerge Herbicidal Activity RICE (crop damage rating): 99
[11]; 63 g ai/ha
  Post-emerge Herbicidal Activity CORN (crop damage rating): 80
[11]; 250 g ai/ha
  Post-emerge Herbicidal Activity CORN (crop damage rating): 95
[12]; 63 g ai/ha
  Post-emerge Herbicidal Activity CASOB (phytotoxicity rating): 90
[12]; 250 g ai/ha
  Post-emerge Herbicidal Activity CASOB (phytotoxicity rating): 100
[13]; 63 g ai/ha
  Post-emerge Herbicidal Activity SETVI (phytotoxicity rating): 70
[13]; 250 g ai/ha
  Post-emerge Herbicidal Activity SETVI (phytotoxicity rating): 100
[14]; 63 g ai/ha
  Post-emerge Herbicidal Activity SORHA (phytotoxicity rating): 80
[14]; 250 g ai/ha
  Post-emerge Herbicidal Activity SORHA (phytotoxicity rating): 99
[15]; 63 g ai/ha
  Post-emerge Herbicidal Activity CHEAL (phytotoxicity rating): 100
[15]; 250 g ai/ha
  Post-emerge Herbicidal Activity CHEAL (phytotoxicity rating): 100
[16]; 63 g ai/ha
  Post-emerge Herbicidal Activity DIGSA (phytotoxicity rating): 95
[16]; 250 g ai/ha
  Post-emerge Herbicidal Activity DIGSA (phytotoxicity rating): 100
[17]; 63 g ai/ha
  Post-emerge Herbicidal Activity IPOHE (phytotoxicity rating): 100
[17]; 250 g ai/ha
  Post-emerge Herbicidal Activity IPOHE (phytotoxicity rating): 100
[18]; 63 g ai/ha, rating scale 0-100 (0 no damage, 100 complete death)
  Post-emerge Herbicidal Activity AMARE (phytotoxicity rating): 95
[18]; [23]
  Post-emerge Herbicidal Activity AMARE (phytotoxicity rating): 100
[19]; 63 g ai/ha
  Post-emerge Herbicidal Activity ECHCG (phytotoxicity rating): 70
[19]; 250 g ai/ha
  Post-emerge Herbicidal Activity ECHCG (phytotoxicity rating): 100
[20]; 63 g ai/ha
  Post-emerge Herbicidal Activity ABUTH (phytotoxicity rating): 100
[20]; 250 g ai/ha
  Post-emerge Herbicidal Activity ABUTH (phytotoxicity rating): 100
[21]; 63 g ai/ha
  phytotoxicity rating RICE: 99
[21]; 250 g ai/ha
  phytotoxicity rating RICE: 100
[22]; 63 g ai/ha
  phytotoxicity rating CORN: 100
[22]; 250 g ai/ha
  phytotoxicity rating CORN: 100
